Measured values taken from PubChem BioAssay (NCI).
Several values for one entry are separate records, joined by “and”; a condition that tells them apart may be missing. Identical values can stand only once.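 96-well plates; 48 h exposure; 5 concentrations. Endpoints by linear interpolation between flanking doses. Not reached: highest tested concentration assigned. The concentration for 50% growth inhibition is given as GI50. TGI is the concentration that stops growth completely.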

Key:
Test in all cases: DTP human tumour cell line panel, 48 h
786-0 renal = system: 786-0 renal
COLO 205 colon = system: COLO 205 colon
HCC-2998 colon = system: HCC-2998 colon
IGROV1 ovarian = system: IGROV1 ovarian
NCI-H522 lung = system: NCI-H522 lung
OVCAR-5 ovarian = system: OVCAR-5 ovarian
RPMI-8226 leukemia = system: RPMI-8226 leukemia
SF-268 CNS = system: SF-268 CNS
SF-295 CNS = system: SF-295 CNS
SN12C renal = system: SN12C renal

| Compound | TGI (786-0 renal) [µM] | TGI (COLO 205 colon) | TGI (HCC-2998 colon) | TGI (IGROV1 ovarian) [µM] | TGI (NCI-H522 lung) | TGI (OVCAR-5 ovarian) [µM] | TGI (RPMI-8226 leukemia) [µM] | TGI (SF-268 CNS) [µM] | TGI (SF-295 CNS) [µM] | TGI (SN12C renal) [µM] | GI50 (HCC-2998 colon) [µM] | GI50 (IGROV1 ovarian) [µM] | GI50 (NCI-H522 lung) [µM] | GI50 (SF-268 CNS) [µM] | GI50 (SN12C renal) [µM] |
| --- | --- | --- | --- | --- | --- | --- | --- | --- | --- | --- | --- | --- | --- | --- | --- |
| C[C@H](CCC(=O)O)[C@H]1CC[C@H]2[C@@H]3CC[C@@H]4C[C@H](O)CC[C@]4(C)[C@H]3C[C@H](O)[C@]12C | > 100 | 61.8 µM | > 100 µM | 86.7 | 86.7 µM | > 100 | 57.6 | > 100 | 38.9 | > 100 | – | – | – | – | – |
| Cc1nc2c(nc1C)-c1[nH]c3c(c1C(=O)C2=O)CCCC3=O | 7.34 | 7.93 µM | 7.71 µM | 11.5 | 4.42 µM | 4.7 | 3.22 | 2.9 | 3.31 | 3.28 | – | – | – | – | – |
| CC1CCC(=O)C(C(=O)CC2CC(=O)N(C)C(=O)C2)C1 (stereo not given) | > 100 | > 100 µM | > 100 µM | > 100 | > 100 µM | > 100 | > 100 | > 100 | > 100 | > 100 | – | – | – | – | – |
| CC#CCOC(=O)c1ccccc1OC(C)=O | > 100 | > 100 µM | > 100 µM | > 100 | > 100 µM | > 100 | > 100 | > 100 | > 100 | > 100 | – | – | – | – | – |
| O=C(Nc1nc(C23CC4CC(CC(C4)C2)C3)cs1)c1cc2ccc(O)cc2oc1=O | 23.8 | 50.4 µM | 43.3 µM | 33 | 45.6 µM | 48.5 | 32.6 | 39.9 | 48.4 | 30.4 | – | – | – | – | – |
| COc1ccc(-[n+]2nc(S(=O)(=O)O)c(/C=C/c3ccc(N(C)C)cc3)cc2C#N)cc1 | > 100 | > 100 µM | > 100 µM | > 100 | > 100 µM | > 100 | > 100 | > 100 | > 100 | > 100 | – | – | – | – | – |
| O=c1cc(-c2cccc3ccccc23)[nH]c2ncccc12 | > 100 | 0.0587 µM and 0.136 µM | 0.424 µM and 1.54 µM | > 100 | 0.0698 µM and 0.0767 µM | > 100 | > 100 | > 100 | > 100 | > 100 | 0.0313 | 0.0417 | 0.0158 | 10.1 | 0.149 |
| CN=C(N=Nc1c(O)[nH]c2ccccc12)SCC(=O)c1ccc(Br)cc1 | 16 | > 100 µM | 13.2 µM | > 100 | > 56.7 µM | > 88.8 | > 100 | > 48.7 | 49.6 | > 48.7 | – | – | – | – | – |
| CCOC(=O)CC[C@H](NC(=O)[C@H](N)Cc1ccc(N(CCCl)CCCl)cc1)C(=O)OCC | 23.5 | 52.9 µM | > 48.6 µM | > 65.7 | 18.3 µM | 65 | > 100 | 19.7 | > 77.8 | > 62.4 | – | – | – | – | – |
| CC(CO)(CO)N1C(=O)C2C3C=CC(C3)C2C1=O (stereo not given) | > 100 | > 100 µM | > 100 µM | > 100 | > 100 µM | > 100 | > 100 | > 100 | > 100 | > 100 | – | – | – | – | – |
| Nc1nc(N)c2c3c(cnc2n1)CC(c1ccccc1)CC3 (stereo not given) | 24.3 | > 100 µM | > 100 µM | 21.7 | 35.9 µM | > 100 | > 100 | 58.5 | > 100 | 53.3 | – | – | – | – | – |
| O=C(Oc1ccccn1)c1cc2cc(CCl)ccc2oc1=O | 39.6 | > 100 µM | > 100 µM | > 100 | 30.3 µM | > 100 | > 100 | 39.2 | > 100 | 56.7 | – | – | – | – | – |
| N#Cc1c(-c2ccc(Cl)cc2Cl)nc2[nH][nH]c(=S)n2c1=O | > 100 | > 100 µM | > 100 µM | > 100 | > 100 µM | > 100 | > 100 | > 100 | > 100 | > 100 | – | – | – | – | – |
| COc1cc2c(C)cc(O)cc2c2cc(O)c(C)cc12 | 17.7 | 19.6 µM | 24.4 µM | 29 | 27.3 µM | 24.3 | 6.64 | 29.6 | 23.8 | 19.8 | – | – | – | – | – |
| O=[N+]([O-])/C(C(Cl)=C(Cl)Cl)=C(/Cl)Sc1ccccc1 | 2.62 | 2.75 µM | 5.7 µM | 4.69 | 4.42 µM | 3.9 | 1.15 | 5.71 | 37.6 | 3.55 | – | – | – | – | – |
